Experimental data taken from PMC2629381 (Biochemistry, 2008).

Biological target: GluR4 (GluR4flip) (Rattus norvegicus, UniProt P19493, L505Y)
Test: whole-cell voltage-clamp dose-response
Assay type: cell-based

Chain of GluR4 (GluR4flip) (P19493 21-902 isoform P19493-2 L505Y): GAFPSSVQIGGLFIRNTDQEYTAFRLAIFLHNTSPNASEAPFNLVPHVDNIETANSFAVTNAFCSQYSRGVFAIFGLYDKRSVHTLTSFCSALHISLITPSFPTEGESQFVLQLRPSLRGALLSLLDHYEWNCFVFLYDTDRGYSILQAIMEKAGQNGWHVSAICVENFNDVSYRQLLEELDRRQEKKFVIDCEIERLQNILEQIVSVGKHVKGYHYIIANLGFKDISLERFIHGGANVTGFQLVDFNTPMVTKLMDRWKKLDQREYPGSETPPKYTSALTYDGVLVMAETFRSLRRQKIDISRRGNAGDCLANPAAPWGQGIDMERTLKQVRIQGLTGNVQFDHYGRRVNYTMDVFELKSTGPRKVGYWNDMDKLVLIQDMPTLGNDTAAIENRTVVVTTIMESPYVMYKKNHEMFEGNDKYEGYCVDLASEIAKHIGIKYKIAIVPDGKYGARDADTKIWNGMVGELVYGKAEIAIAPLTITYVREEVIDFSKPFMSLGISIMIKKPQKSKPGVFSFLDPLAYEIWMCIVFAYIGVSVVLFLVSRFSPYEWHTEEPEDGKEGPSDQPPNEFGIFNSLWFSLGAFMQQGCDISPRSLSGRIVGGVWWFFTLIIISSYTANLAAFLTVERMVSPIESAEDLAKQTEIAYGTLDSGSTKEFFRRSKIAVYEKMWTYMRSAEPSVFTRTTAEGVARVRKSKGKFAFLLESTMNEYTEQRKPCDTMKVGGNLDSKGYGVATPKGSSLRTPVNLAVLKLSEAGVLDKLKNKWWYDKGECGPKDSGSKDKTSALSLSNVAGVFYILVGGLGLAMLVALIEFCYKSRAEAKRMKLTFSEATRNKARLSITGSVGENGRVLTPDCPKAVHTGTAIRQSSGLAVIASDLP

Which EC50 does the source give for `C=C(C)[C@H]1CN[C@H](C(=O)O)[C@H]1CC(=O)O` [Kainate, 2-carboxy-3-carboxymethyl-4-isopropenyl-pyrrolidine] here?
Its EC50 is 92 ± 14 µM.
